Data reported in US8178506B2, “Oligomeric compounds and compositions for use in modulation of small non-coding RNAs” (Regulus Therapeutics Inc., priority 2003, dated 2012).
In the oligonucleotide strings, read from the 5' end, every base follows the letter of its sugar. An asterisk marks phosphorothioate; unmarked linkages are phosphodiester. Other units and linkages are bracketed, terminal groups are in braces. A string of capitals states the bases alone. e = 2'-O-(2-methoxyethyl) (MOE); [5mC] = 5-methylcytosine; d = 2'-deoxy (DNA)

Columns and labels:
[1] = system: T47D cells; assay: Caspase-3 activity assay (apoptosis) in T47D cells; conditions: for apoptosis in T47D cells: caspase assay, conclusion from Tables 9-12; for apoptosis in T47D cells / Fold Increase over UTC (caspase activity): 200 nM; for Fold Increase over UTC (caspase-3 activity, apoptosis) / Fold Increase over UTC (caspase activity): T47D cells, 48 hours; for Fold Increase over UTC (caspase-3 activity, apoptosis): 200 nM oligomeric compound; for Fold Increase over UTC (caspase activity): relative to untreated control
[2] = system: IL-12 mRNA; assay: IL-12 mRNA in LPS-activated primary murine macrophages; assay type: cell-based, mouse; conditions: normalized to LPS-treated cells without oligomeric compound; for IL-12 mRNA expression, −IFN % UTC: 300 nM oligomeric compound and LPS, no IFN-gamma pretreatment, single experiment; for IL-12 mRNA expression, +IFN % UTC: 300 nM oligomeric compound, stimulation with IFN-gamma and LPS, average of 2 experiments
Experimental: To investigate the role of miRNAs in the immune response, oligomeric compounds of the present invention targeting miRNAs were tested for their effects upon lipopolysaccharide (LPS)-activated primary murine macrophages. Macrophages participate in the immune response, for example, in the recognition and phagocytosis of microorganisms, including bacteria. Interferon-gamma (IFN-gamma) released by helper T cells is one type of signal required for macrophage activation, and LPS can serve as an additional stimulus. LPS is a component of the gram-negative bacterial cell wall and acts as an agonist for toll-like receptor 4 (TLR4), the primary LPS receptor expressed by macrophages. The proinflammatory cytokines interleukin-12 (IL-12) and interleukin-6 (IL-6) are induced by LPS treatment of macrophages, thus the expression of the mRNAs encoding these cytokines was used to evaluate the response of macrophages to LPS following treatment with oligomeric compounds targeting miRNAs.
Macrophages were isolated as follows. Female C57B1/6 mice (Charles River Laboratories, Wilmington, Mass.) were injected intraperitoneally with 1 ml 3% thioglycollate broth (Sigma-Aldrich, St. Louis, Mo.), and peritoneal macrophage cells were isolated by peritoneal lavage 4 days later. The cells were plated in 96-well plates at 40,000 cells/well for one hour in serum-free RPMI adjusted to contain 10 mM HEPES (Invitrogen Life Technologies, Carlsbad, Calif.), allowed to adhere, then non-adherent cells were washed away and the media was replaced with RPMI containing 10 mM HEPES, 10% FBS and penicillin/streptomycin (“complete” RPMI; Invitrogen Life Technologies, Carlsbad, Calif.).
Oligomeric compounds were introduced into the cells using the non-liposomal transfection reagent FuGENE 6 Transfection Reagent (Roche Diagnostics Corp., Indianapolis, Ind.). Oligomeric compound was mixed with FuGENE 6 in 1 mL of serum-free RPMI to achieve a concentration of 10 μL FuGENE per 1000 nM oligomeric compound. The oligomeric compound/FuGENE complex was allowed to form at room temperature for 20 minutes. This mixture was diluted to the desired concentration of oligomeric compound by the addition of the appropriate volume of complete RPMI. The final ratio of FuGENE 6 to oligomeric compound was 1 μL of FuGENE 6 per 100 nM oligomeric compound. A volume of 100 μL of oligomeric compound/FuGENE/RPMI was added to each well of the 96-well plate in which the macrophages were cultured. Each oligomeric compound treatment was repeated in triplicate.
Following oligomeric compound treatment, cells were stimultated with LPS. Cells were cultured in the presence of the transfection complex for approximately 24 to 28 hours at 37° C. and 5% CO2, after which the medium containing the transfection complex was removed from the cells, and complete RPMI containing 100 ng/mL LPS (Sigma-Aldrich Corp., St. Louis, Mo.) was added to the cells for a period of approximately 24 hours. Control samples included (1) cells receiving no oligomeric compound, stimulated with LPS and (2) cells receiving neither oligomeric compound nor LPS treatment.
In another embodiment, following oligomeric compound treatment, cells were first activated by IFN-gamma, to amplify the response to LPS. Cells were cultured in the presence of the transfection complex for approximately 24 hours at 37° C. and 5% CO2, at which point the medium containing the transfection complex was removed from the cells, and complete RPMI containing 100 ng/mL recombinant mouse IFN-gamma (R&D Systems, Minneapolis, Minn.) was added to the cells. After the 4 hour treatment with INF-gamma, cells were treated with 100 ng/mL LPS for approximately 24 hours. Control samples included (1) cells receiving no oligomeric compound, stimulated with LPS and (2) cells receiving neither oligomeric compound nor LPS treatment. […]

## TGCTCAGCCAGCCCCATTCT (antisense; same sequence listed as MOE 5-10-5 gapmer and as uniform MOE, further chemistry not given here) [ISIS 328645]
[1]
  apoptosis in T47D cells: induce apoptosis

## 328650 (eA*eA*eT*e[5mC]*e[5mC]*dA*dT*dT*dG*dA*dA*dG*dA*dG*dG*e[5mC]*eG*eA*eT*eT; antisense) [compound 328650]
[1]; experiment of Table 12
  Fold Increase over UTC (caspase-3 activity, apoptosis): 0.8 fold

## 328646 (eG*e[5mC]*eT*eT*eT*dT*dA*dG*dA*dA*d[5mC]*d[5mC]*dA*d[5mC]*dT*eG*e[5mC]*e[5mC]*eT*e[5mC]; antisense) [compound 328646]
[1]; experiment of Table 10
  Fold Increase over UTC (caspase-3 activity, apoptosis): 1.1 fold

## 328414 (antisense e[5mC]*eT*eT*e[5mC]*eA*dA*dG*dT*dG*d[5mC]*dA*dG*d[5mC]*d[5mC]*dG*eT*eA*eG*eG*e[5mC]) [compound 328414]
[1]; experiment of Table 12
  Fold Increase over UTC (caspase-3 activity, apoptosis): 0.9 fold

## 328378 (e[5mC]*eA*e[5mC]*e[5mC]*e[5mC]*dT*d[5mC]*d[5mC]*dA*dG*dT*dG*d[5mC]*dT*dG*eT*eT*eA*eG*eT; antisense) [compound 328378]
[1]
  Fold Increase over UTC (caspase activity): 1.0

## ACTGATTCAAGAGCTTTGTA (antisense; same sequence listed as MOE 5-10-5 gapmer and as uniform MOE, further chemistry not given here) [ISIS 328648]
[1]
  apoptosis in T47D cells: induce apoptosis

## SEQ ID NO 535: gapmer of Tables 9-12 having this SEQ ID NO (antisense eG*eG*eT*eT*eG*dG*d[5mC]*d[5mC]*dG*d[5mC]*dA*dG*dA*d[5mC]*dT*e[5mC]*eG*eT*eA*e[5mC])
[1]
  apoptosis in T47D cells: induce apoptosis

## 328409 (antisense eG*e[5mC]*eT*eA*eG*dT*dG*dA*d[5mC]*dA*dG*dG*dT*dG*d[5mC]*eA*eG*eA*e[5mC]*eA) [compound 328409]
[1]; experiment of Table 10
  Fold Increase over UTC (caspase-3 activity, apoptosis): 0.7 fold

## 328391 (eA*eT*eG*eG*eT*dA*dA*dT*dT*dT*d[5mC]*dA*dT*dT*dT*e[5mC]*eA*eG*eG*e[5mC]; antisense) [compound 328391]
[1]
  Fold Increase over UTC (caspase activity): 0.8

## 328641 (eT*eG*e[5mC]*eT*eG*dA*d[5mC]*dT*dG*d[5mC]*dT*d[5mC]*dG*d[5mC]*d[5mC]*e[5mC]*eT*eT*eG*e[5mC]; antisense) [compound 328641]
[1]; experiment of Table 12
  Fold Increase over UTC (caspase-3 activity, apoptosis): 1.1 fold

## 328387 (eT*eT*eA*eT*e[5mC]*dG*dG*dA*dA*d[5mC]*dT*dT*d[5mC]*dA*d[5mC]*eA*eG*eA*eG*eA; antisense) [compound 328387]
[1]; experiment of Table 12
  Fold Increase over UTC (caspase-3 activity, apoptosis): 1.4 fold

## 328379 (e[5mC]*eT*eG*eA*e[5mC]*dT*dG*dA*dG*dA*d[5mC]*dT*dG*dT*dT*e[5mC]*eA*e[5mC]*eA*eG; antisense) [compound 328379]
[1]; experiment of Table 12
  Fold Increase over UTC (caspase-3 activity, apoptosis): 1.1 fold

## AGAATGAGTTGACATACCAA (antisense; same sequence listed as MOE 5-10-5 gapmer and as uniform MOE, further chemistry not given here) [ISIS 328658]
[1]
  apoptosis in T47D cells: induce apoptosis

## AGCCAGTGTGTAAAATGAGA (2'-MOE gapmer, phosphorothioate, further chemistry not given here) [ISIS 328700]
[1]
  apoptosis in T47D cells: prevent or have a protective effect from apoptosis

## SEQ ID NO 520: gapmer of Tables 9-12 having this SEQ ID NO (antisense eT*eA*e[5mC]*e[5mC]*eT*d[5mC]*dT*dG*d[5mC]*dA*dG*dT*dA*dT*dT*e[5mC]*eT*eA*e[5mC]*eA)
[1]
  apoptosis in T47D cells: prevent or have a protective effect from apoptosis

## 328404 (antisense eG*eT*eA*eG*eA*dT*d[5mC]*dT*d[5mC]*dA*dA*dA*dA*dA*dG*e[5mC]*eT*eA*e[5mC]*e[5mC]) [compound 328404]
[1]; experiment of Table 11
  Fold Increase over UTC (caspase-3 activity, apoptosis): 0.9 fold

## 328654 (eT*e[5mC]*e[5mC]*eA*eG*dG*dA*dT*dG*d[5mC]*dA*dA*dA*dA*dG*e[5mC]*eA*e[5mC]*eG*eA; antisense) [compound 328654]
[1]; experiment of Table 11
  Fold Increase over UTC (caspase-3 activity, apoptosis): 1.0 fold

## 328422 (antisense eG*eA*eG*eG*eA*dT*dG*dT*d[5mC]*dT*dG*dT*dG*dA*dA*eT*eA*eG*e[5mC]*e[5mC]) [compound 328422]
[1]; experiment of Table 10
  Fold Increase over UTC (caspase-3 activity, apoptosis): 1.0 fold

## 341793 (antisense CCAUAAAGUAGGAAACACUACA; all 2'-MOE, all phosphorothioate, methylation of C and T or U not given here) [compound 341793]
[2]
  IL-12 mRNA expression, −IFN % UTC: 202 % UTC
  IL-12 mRNA expression, +IFN % UTC: 147 % UTC

## SEQ ID NO 544: gapmer of Tables 9-12 having this SEQ ID NO (eT*e[5mC]*eT*eA*eA*dG*dG*dG*dG*dT*d[5mC]*dA*d[5mC]*dA*dG*eA*eA*eG*eG*eT)
[1]
  apoptosis in T47D cells: induce apoptosis

## TGCTGACTGCTCGCCCTTGC (antisense; same sequence listed as MOE 5-10-5 gapmer and as uniform MOE, further chemistry not given here) [ISIS 328641]
[1]
  apoptosis in T47D cells: induce apoptosis

## 341790 (antisense CGAAGGCAACACGGAUAACCUA; all 2'-MOE, all phosphorothioate, methylation of C and T or U not given here) [compound 341790]
[2]
  IL-12 mRNA expression, −IFN % UTC: 318 % UTC
  IL-12 mRNA expression, +IFN % UTC: 84 % UTC

## 328643 (e[5mC]*eA*eT*eG*eA*dA*dG*dA*dA*dA*dG*dA*d[5mC]*dT*dG*eT*eA*eG*e[5mC]*e[5mC]; antisense) [compound 328643]
[1]
  Fold Increase over UTC (caspase activity): 0.9

## 328426 (antisense eG*eG*eT*eT*eG*dG*d[5mC]*d[5mC]*dG*d[5mC]*dA*dG*dA*d[5mC]*dT*e[5mC]*eG*eT*eA*e[5mC]) [compound 328426]
[1]; experiment of Table 11
  Fold Increase over UTC (caspase-3 activity, apoptosis): 1.3 fold

## 328372 (eT*eT*eT*eG*eA*dT*dA*dG*dT*dT*dT*dA*dG*dA*d[5mC]*eA*e[5mC]*eA*eA*eA; antisense) [compound 328372]
[1]
  Fold Increase over UTC (caspase activity): 1.0

## 341786 (antisense CGCAAGGUCGGUUCUACGGGUG; all 2'-MOE, all phosphorothioate, methylation of C and T or U not given here) [compound 341786]
[2]
  IL-12 mRNA expression, −IFN % UTC: 266 % UTC
  IL-12 mRNA expression, +IFN % UTC: 99 % UTC

## 341815 (antisense CAUCGUUACCAGACAGUGUUA; all 2'-MOE, all phosphorothioate, methylation of C and T or U not given here) [compound 341815]
[2]
  IL-12 mRNA expression, −IFN % UTC: 190 % UTC
  IL-12 mRNA expression, +IFN % UTC: 157 % UTC

## 340345 (antisense GGAACUUAGCCACUGUGAA; all 2'-MOE, all phosphorothioate, methylation of C and T or U not given here) [compound 340345]
[2]
  IL-12 mRNA expression, −IFN % UTC: 104 % UTC
  IL-12 mRNA expression, +IFN % UTC: 78 % UTC

## 341811 (antisense UCCACAUGGAGUUGCUGUUACA; all 2'-MOE, all phosphorothioate, methylation of C and T or U not given here) [compound 341811]
[2]
  IL-12 mRNA expression, −IFN % UTC: 154 % UTC
  IL-12 mRNA expression, +IFN % UTC: 88 % UTC
